Measurements reported in patent publication US9895381B2, “Vitamin D receptor agonists to treat diseases involving CXCL12 activity” (Salk Institute for Biological Studies, priority 2013, dated 2018).

Columns and labels:
[1] = tested on: pancreatic cancer patient; test: Patient treated with neoadjuvant paricalcitol plus gemcitabine/abraxane; format: in vivo, human
Protocol: Thus, in some examples, paricalcitol is administered at 5 or 10 μg IV three times weekly for two-three weeks before surgery. […] Paricalcitol can be given for 28 days approximately prior to planned surgery, and can be continued up to the day before surgery, since there is no relevant toxicity of this micronutrient. Last dose can be 24 h before surgery (if surgery is delayed, and additional days of therapy may be given to reach the day before surgery).

[2] = cited from earlier work
[3] = tested on: PDA patients; conditions: standard of care; cited from earlier work
[4] = 28 days paricalcitol with one cycle of gemcitabine/abraxane

Row | Compound | adverse clinical effects before surgery [1, 4] | calcium levels [1, 4] | histological analysis of resected tumor ([1]; after surgery) | serum CA 19-9 level after treatment ([1]; reduced from 120 U/mL, normal range 0-37 U/mL) | phosphorus and calcium levels ([2]; first 30 days of treatment) | mean plasma clearance ([2]; over 600 patients) | benefit to PDA patients [3]
1 | C[C@H](/C=C/[C@H](C)C(C)(C)O)[C@H]1CC[C@H]2/C(=C/C=C3C[C@@H](O)C[C@H](O)C3)CCC[C@]12C [Paricalcitol, 19-nor-1,25-(OH)2-vitamin D2] | No adverse clinical effects | no elevation calcium levels | granulomas with few cancer cells | 40 U/mL | stable phosphorus and calcium levels | 1.75 L/h | –
2 | Cl.Nc1ccn([C@@H]2O[C@H](CO)[C@@H](O)C2(F)F)c(=O)n1 [gemcitabine, 2′-Deoxy-2′,2′-difluorocytidine monohydrochloride] | – | – | – | – | – | – | 1.5 month
